This passage reports EC50 and Ki results from patent publication US7985765B2, “Therapeutic substituted pyrroles” (Allergan, Inc., priority 2008, dated 2011).

Assay [1] concerns the target T1, EP2 (Homo sapiens, UniProt P43116). Description: EP2 flipr functional assay. Type of assay: cell-based. From the text: (§1) US 2007/0129552, incorporated by reference herein, describes the methods used to obtain the in vitro data in the table below.
Another assay concerns the target EP4 (Homo sapiens, UniProt P35408). The experiment in a line: EP4 binding (Ki).
Text: as §1

The target of the next assay is T2, hDP (Homo sapiens, UniProt Q13258).
T2 sequence (Q13258 1-359): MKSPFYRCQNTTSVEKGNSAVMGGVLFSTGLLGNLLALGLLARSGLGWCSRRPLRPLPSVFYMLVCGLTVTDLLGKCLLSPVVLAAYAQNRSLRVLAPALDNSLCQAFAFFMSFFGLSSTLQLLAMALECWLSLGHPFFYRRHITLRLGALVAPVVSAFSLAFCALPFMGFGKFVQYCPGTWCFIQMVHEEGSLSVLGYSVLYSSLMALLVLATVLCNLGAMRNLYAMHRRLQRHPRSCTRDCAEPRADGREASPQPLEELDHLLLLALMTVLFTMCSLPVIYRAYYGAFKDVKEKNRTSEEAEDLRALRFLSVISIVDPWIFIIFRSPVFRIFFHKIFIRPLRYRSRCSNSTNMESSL
The experiment in a line: Other receptors functional assay, hDP. Type of assay: cell-based.
Text: as §1

The target of assay [2] is T1, EP2. The experiment in a line: EP2 binding (Ki).
Text: as §1

Assay [3] has as its target T1, EP2. The experiment in a line: EP2 cAMP assay. Type of assay: cell-based.
Text: as §1

SMILES strings stand for the structures. pEC50, pKi: −log10 of the molar value.

T1 sequence (P43116 whole entry): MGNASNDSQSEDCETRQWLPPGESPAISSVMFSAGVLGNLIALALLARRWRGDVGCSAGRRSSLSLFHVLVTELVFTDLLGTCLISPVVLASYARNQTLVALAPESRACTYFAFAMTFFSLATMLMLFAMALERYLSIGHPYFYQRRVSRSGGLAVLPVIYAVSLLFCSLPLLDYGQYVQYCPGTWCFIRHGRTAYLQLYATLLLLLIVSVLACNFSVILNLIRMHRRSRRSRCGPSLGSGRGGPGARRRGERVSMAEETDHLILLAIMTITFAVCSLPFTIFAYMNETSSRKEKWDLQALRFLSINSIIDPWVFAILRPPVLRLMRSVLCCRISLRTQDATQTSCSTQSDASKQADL
Sequence of EP4 (P35408 whole entry): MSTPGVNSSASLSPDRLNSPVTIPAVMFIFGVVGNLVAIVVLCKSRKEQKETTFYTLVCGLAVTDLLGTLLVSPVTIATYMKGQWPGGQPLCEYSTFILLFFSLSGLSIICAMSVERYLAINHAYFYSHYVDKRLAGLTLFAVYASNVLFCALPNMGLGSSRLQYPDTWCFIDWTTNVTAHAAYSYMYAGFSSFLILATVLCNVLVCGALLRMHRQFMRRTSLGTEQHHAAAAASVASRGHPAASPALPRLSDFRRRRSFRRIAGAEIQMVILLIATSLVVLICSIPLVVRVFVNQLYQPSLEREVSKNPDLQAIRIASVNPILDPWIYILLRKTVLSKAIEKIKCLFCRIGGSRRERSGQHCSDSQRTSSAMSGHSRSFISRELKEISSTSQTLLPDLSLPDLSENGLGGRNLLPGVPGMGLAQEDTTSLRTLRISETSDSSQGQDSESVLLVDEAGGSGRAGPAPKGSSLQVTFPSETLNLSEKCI

Regarding `CCCCCCc1ccc(-n2cccc2CCCc2ccc(C(=O)O)s2)cc1` [Example 1, 5-(3-(1-(4-hexylphenyl)-1H-pyrrol-2-yl)propyl)thiophene-2-carboxylic acid], the pEC50 on EP2 [1] is 5.55; at EP2 [3], 9.15. For the same compound, the results for the pKi at EP4 and at EP2 [2] were 5.40 and 7.34, respectively. The same compound yielded an EC50 on hDP of 2190 nM.
